Literature values as cited in patent US20250170148A1, “NEUROACTIVE STEROIDS FOR TREATMENT OF GASTROINTESTINAL DISEASES OR CONDITIONS” (Sage Therapeutics, Inc., priority 2022, published 2025).
Entries after “also recorded” stand apart in the source; their conditions may differ. Like-named read-outs stand apart in the source and are kept apart here.

Key:
[1] = test system: patients with major depressive disorder; details: meta-analysis; for rate of gastrointestinal adverse reactions compared to placebo: 15 most commonly used antidepressants in MDD; for gastrointestinal tolerability among antidepressants: patients with MDD

COc1ccc2cccc(CCNC(C)=O)c2c1 [agomelatine]
rate of gastrointestinal adverse reactions compared to placebo [1]: higher rates of gastrointestinal adverse reactions compared to placebo

CC(NC(C)(C)C)C(=O)c1cccc(Cl)c1 (centres unmarked) [bupropion]
rate of gastrointestinal adverse reactions compared to placebo [1]: higher rates of gastrointestinal adverse reactions compared to placebo

CN(C)CCCC1(c2ccc(F)cc2)OCc2cc(C#N)ccc21 (centres unmarked) [citalopram]
rate of gastrointestinal adverse reactions compared to placebo [1]: higher rates of gastrointestinal adverse reactions compared to placebo

CN(C)CC(c1ccc(O)cc1)C1(O)CCCCC1 (centres unmarked) [desvenlafaxine]
rate of gastrointestinal adverse reactions compared to placebo [1]: higher rates of gastrointestinal adverse reactions compared to placebo

CNCC[C@H](Oc1cccc2ccccc12)c1cccs1 [duloxetine]
rate of gastrointestinal adverse reactions compared to placebo [1]: higher rates of gastrointestinal adverse reactions compared to placebo

CN(C)CCC[C@@]1(c2ccc(F)cc2)OCc2cc(C#N)ccc21 [escitalopram]
rate of gastrointestinal adverse reactions compared to placebo [1]: higher rates of gastrointestinal adverse reactions compared to placebo | gastrointestinal tolerability among antidepressants [1]: least tolerated antidepressants on the gastrointestinal tract | gastrointestinal tolerability among antidepressants ([1]; listed as Escitalopram): least tolerated antidepressants on the GI tract

CNCCC(Oc1ccc(C(F)(F)F)cc1)c1ccccc1 (centres unmarked) [fluoxetine]
rate of gastrointestinal adverse reactions compared to placebo [1]: higher rates of gastrointestinal adverse reactions compared to placebo

COCCCC/C(=N\OCCN)c1ccc(C(F)(F)F)cc1 [fluvoxamine]
rate of gastrointestinal adverse reactions compared to placebo [1]: higher rates of gastrointestinal adverse reactions compared to placebo

CCN(CC)C(=O)[C@@]1(c2ccccc2)C[C@H]1CN [levomilnacipran]
rate of gastrointestinal adverse reactions compared to placebo [1]: higher rates of gastrointestinal adverse reactions compared to placebo

CN1CCN2c3ncccc3Cc3ccccc3C2C1 (centres unmarked) [mirtazapine]
rate of gastrointestinal adverse reactions compared to placebo [1]: higher rates of gastrointestinal adverse reactions compared to placebo

Fc1ccc([C@@H]2CCNC[C@H]2COc2ccc3c(c2)OCO3)cc1 [paroxetine]
rate of gastrointestinal adverse reactions compared to placebo [1]: higher rates of gastrointestinal adverse reactions compared to placebo

CCOc1ccccc1OC(c1ccccc1)C1CNCCO1 (centres unmarked) [reboxetine]
rate of gastrointestinal adverse reactions compared to placebo [1]: higher rates of gastrointestinal adverse reactions compared to placebo

CN[C@H]1CC[C@@H](c2ccc(Cl)c(Cl)c2)c2ccccc21 [sertraline]
rate of gastrointestinal adverse reactions compared to placebo [1]: higher rates of gastrointestinal adverse reactions compared to placebo | gastrointestinal tolerability among antidepressants [1]: least tolerated antidepressants on the gastrointestinal tract; also recorded: least tolerated antidepressants on the GI tract | incidence of diarrhea (compared to other SSRIs and venlafaxine): higher incidence of diarrhea

COc1ccc(C(CN(C)C)C2(O)CCCCC2)cc1 (centres unmarked) [venlafaxine]
rate of gastrointestinal adverse reactions compared to placebo [1]: higher rates of gastrointestinal adverse reactions compared to placebo | rates of nausea and vomiting (compared to SSRIs and duloxetine): higher rates of nausea and vomiting

Cc1ccc(Sc2ccccc2N2CCNCC2)c(C)c1 [vortioxetine]
rate of gastrointestinal adverse reactions compared to placebo [1]: higher rates of gastrointestinal adverse reactions compared to placebo
